The results in this text go back to patent publication US20090005443A1, “Treatment of Depression” (priority 2007, published 2009).

Where “and” joins values, the source holds several entries; their conditions need not be identical. Equal values may be shown once.

In this series the test system is Patients with MDD. The class given is in vivo. The note with it: for Ham-D change: baseline to end value, oral tablets, no visit qualifier given; for Ham-D change / Ham-D change (by penultimate visit): individual MDD patient; for Ham-D change (by penultimate visit): baseline to value by penultimate visit; for Reduction in patient depression, measured using the Hamilton-D rating scale: the five patients who completed the trial protocol (three tramadol, two amitriptyline). The method, then: A Single Centre, Open Labelled, Comparative, Parallel Pilot Study to Evaluate the Antidepressant Activity of Tramadol in the Treatment of Major Depressive Disorder (MDD).
The investigational drug was administered in tablet form orally, with an initial dose of 200 mg daily for 2 weeks and then maintenance at 200-400 mg daily for a further 14 weeks.
Patients with MDD aged between 18 to 65 years old.
To evaluate the antidepressant activity of tramadol by comparing the change in Ham-D scores of patients with MDD when treated with tramadol as compared with amitriptyline.
Remission is defined as ≦7 on the 17 item Ham-D scale upon completion of week 8 of trial. Response is defined as ≧50% decrease from baseline depression on 17 item Ham-D score upon completion of week 8 of trial. Partial response is defined as <50% but ≧25% decrease from base line depression on 17 item Ham-D Scale. Recovery is defined as at least 8 weeks free from depression, as diagnosed according to DSM-IV-TR criteria.
This was a comparative, single centre, parallel, open-label randomized study in which half of the study population will receive tramadol and the other half will receive amitriptyline.
The primary endpoint is the treatment response of each study subject, as measured on the Ham-D 17-item scale (Hamilton Mass.). Study entry requires a Ham-D score of ≧15. To achieve remission, a cut-off score of ≦7 will be applied. Response will be defined as a ≧50% drop in score and a partial response will be defined as <50% but ≧25% drop in score. Recovery will be defined as at least 8 weeks free of major depression, as diagnosed according to DSM-IV-TR criteria.
In an open-label study comparing the treatment of Major Depressive Disorder with tramadol and amitriptyline, sixteen patients have been enrolled and five have completed the trial protocol. Of those five, three had received tramadol and two had received amitriptyline. […] A further eight patients are displaying solid therapeutic responses and there have been three drop-outs. Information on therapeutic responses of the first 12 patients is summarised below.

`COc1cccc(C2(O)CCCCC2CN(C)C)c1` (centres unmarked) [Tramadol]: the “Reduction in patient depression, measured using the Hamilton-D rating scale” value is “clinically significant reduction in patient depression”. Moreover, under “17-item Ham-D score”, the Ham-D change is 23 to 0; the “Ham-D change (by penultimate visit)” value is 26 to 0 (by penultimate and 26 to 4 (by penultimate (2×). For the same compound, for the setting “17-item Ham-D score, baseline to value by visit 4 of 7, individual MDD patient”, the “Ham-D change (by visit 4 of 7)” value is reported as 18 to 16 (by visit 4 of 7).
With `CN(C)CCC=C1c2ccccc2CCc2ccccc21` [Amitriptyline, amitriptyline], the “Reduction in patient depression, measured using the Hamilton-D rating scale” value was “clinically significant reduction in patient depression”. In addition, under “17-item Ham-D score”, the Ham-D change was 22 to 0 and the “Ham-D change (by penultimate visit)” value is 19 to 4 (by penultimate. The “Drop-out because of AE” value (human, in vivo) is given as “Dropped out after Visit 2”.
